Patent US8298781B2, “Compositions and methods for characterizing and regulating olfactory sensation” (Duke University, priority 2007, dated 2012)

Tests used:
Format in all cases: in vivo
[1] = tested on: human subjects; assay: Human olfactory psychophysics: intensity rating by OR7D4 genotype; conditions: 7-point scale, two concentrations pooled; N=100 RT/WM, N=255 RT/RT
Protocol: (§1) Human olfactory psychophysics. All human subjects gave informed consent to participate in this study and were tested in a well-ventilated room. Normal human subjects (n=412; 218 female, 194 male; median age 34, age range 19-75) were pre-screened to exclude pregnant women and those with medical conditions causing general impairment of the sense of smell. All subjects completed two replicates of the test separated by at least 4 days. Odors were presented in amber vials as previously described (see, e.g., Keller, A., et al., Nat Neurosci 7, 337-338 (2004); herein incorporated by reference in its entirety) using bar-coded symbols to ensure that subjects were blind to the identity of all odors. The intensity and valence of 66 odors at two concentrations (“high” and “low”) and two solvents was rated using a 7-point scale. Thresholds were calculated using the single staircase method with seven reversals (see, e.g., Doty, R. L., et al., Chem Senses 20, 645-656 (1995); Doty, R. L. & Laing, D. G. in Handbook of Olfaction and Gustation (ed. Doty, R. L.) pp. 203-228 (Marcel Dekker, Inc., New York, 2003); each of which are herein incorporated by reference in their entireties). Threshold tests included both steroids as binary dilutions from […] (binary dilution 6) to 1: 134,217,728 (binary dilution 27). Subjects who could not reliably distinguish a 1:64 dilution of androstenone and androstadienone from solvent were operationally defined as anosmic to these odorous steroids, although it could not be excluded that these subjects could detect higher concentrations of these steroids (see, e.g., Bremner, E. A., et al., Chem Senses 28, 423-432 (2003); herein incorporated by reference in its entirety). Odor profiling used the method established by Dravnieks, et al. (see, e.g., Dravnieks, A., et al., Science 218, 799-801 (1982); herein incorporated by reference in its entirety).
(§2) Stimuli for olfactory psychophysics. All odors were presented as one ml of an odor dilution in either propylene glycol or paraffin oil in 20 ml amber glass vials. All of these compounds were used in the intensity and valence rating portion of the smell test.
(§3) Olfactory ratings. The intensity and valence of 66 odors were rated at two different concentrations (high and low) and the intensity and valence of the two solvents (paraffin oil and propylene glycol) was rated three times. Prior to these ratings, six stimuli that represented the spectrum of intensity and valence of the stimuli used in the study were presented to allow the subjects to calibrate the usage of the scale. The subjects were unaware that the six first stimuli served that purpose. After the rating of the 66 odors at two concentrations and the rating of the solvents, 15 stimuli that were presented earlier in the experiment were repeated to test for the effect of adaptation and olfactory fatigue on the ratings. The subjects were not aware that the last 15 stimuli served this purpose. These 15 stimuli and the six first stimuli were not included in the analysis presented here. […] The 15 control stimuli and their concentrations were as follows:
(§4) In addition there was a button on the screen labeled “I can't smell anything” and a button labeled “Don't Know”. If the “Don't Know” button was pressed, no rating was recorded. If the “I can't smell anything” button was pressed, a 0 was recorded for the intensity rating and no rating was recorded for the valence rating. The other ratings were transformed according to the following scheme:
(§5) • Extremely Weak=1 • Very Weak=2 • Slightly Weak=3 • Neither Weak nor Strong=4 • Slightly Strong=5 • Very Strong=6 • Extremely Strong=7 Valence Rating • Extremely Unpleasant=1 • Very Unpleasant=2 • Slightly Unpleasant=3 • Neither Unpleasant nor Pleasant=4 • Slightly Pleasant=5 • Very Pleasant=6 • Extremely Pleasant=7
(§6) Averages for the ratings of the different genotypes were calculated. […]

[2] = tested on: human subjects; assay: Human olfactory psychophysics: valence rating by OR7D4 genotype; conditions: 7-point scale, two concentrations pooled
Protocol: as §1, §2, §3, §4, §5, §6

[3] = tested on: human subjects; assay: Human olfactory psychophysics: odor profiling with 146 descriptors; conditions: vanillin 1/200
Protocol: Human olfactory psychophysics. All human subjects gave informed consent to participate in this study and were tested in a well-ventilated room. Normal human subjects (n=412; 218 female, 194 male; median age 34, age range 19-75) were pre-screened to exclude pregnant women and those with medical conditions causing general impairment of the sense of smell. All subjects completed two replicates of the test separated by at least 4 days. Odors were presented in amber vials as previously described (see, e.g., Keller, A., et al., Nat Neurosci 7, 337-338 (2004); herein incorporated by reference in its entirety) using bar-coded symbols to ensure that subjects were blind to the identity of all odors. The intensity and valence of 66 odors at two concentrations (“high” and “low”) and two solvents was rated using a 7-point scale. Thresholds were calculated using the single staircase method with seven reversals (see, e.g., Doty, R. L., et al., Chem Senses 20, 645-656 (1995); Doty, R. L. & Laing, D. G. in Handbook of Olfaction and Gustation (ed. Doty, R. L.) pp. 203-228 (Marcel Dekker, Inc., New York, 2003); each of which are herein incorporated by reference in their entireties). Threshold tests included both steroids as binary dilutions from […] (binary dilution 6) to 1: 134,217,728 (binary dilution 27). […]
Assigning descriptors to odors. Subjects assessed the quality of six odors using an odor profiling method that has shown to produce stable profiles of odorants. […] Odor profiling typically took five minutes per odorant and was performed as a computer-controlled selftest in which the subject's responses were directly recorded. […] The descriptors used to describe the other four odors (vanillin, pentadecalactone, androstenone, and propylene glycol) were evaluated. […]

Row | Structure (SMILES) | intensity rating, OR7D4 RT/WM vs RT/RT subjects [1] | valence rating, OR7D4 RT/WM vs RT/RT subjects [2] | use of two descriptors, OR7D4 RT/WM vs RT/RT subjects [3]
1 | CC1COCc2cc3c(cc21)C(C)(C)C(C)C3(C)C (centres unmarked) [galaxolide] | not affected |  | 
2 | CCCCCCCCOC(C)=O [octyl acetate] |  | less pronounced—but statistically significant—difference | 
3 | O=C1CCCCCCCCCCCCCCO1 [pentadecalactone] | not affected |  | 
4 | COc1cc(C=O)ccc1O [vanillin] |  | less pronounced—but statistically significant—difference | comparable increase
